T1: FGF-8 (Homo sapiens, UniProt P55075)
T1 construct: purchased R & D
T1 sequence (P55075 23-215 isoform P55075-3 limits assumed): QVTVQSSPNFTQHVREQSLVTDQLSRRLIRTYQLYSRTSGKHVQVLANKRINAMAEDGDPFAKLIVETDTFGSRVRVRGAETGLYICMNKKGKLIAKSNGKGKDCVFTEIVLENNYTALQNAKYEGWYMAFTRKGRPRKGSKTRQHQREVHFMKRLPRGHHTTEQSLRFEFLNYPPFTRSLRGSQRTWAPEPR

B1: HV6LV6: YB2/0 cell-derived anti-FGF-8 neutralizing CDR-grafted antibody, VH HV.6 (SEQ ID NO. 20), VL LV.6 (SEQ ID NO. 21) (antibody, V domains shown)
VH: QVQLVQSGAEVARPGASVKVSCKASGYTFTDYYLNWVRQRSGQGLEWIGEIDPGSDSIYYNENLEGRVTITADTSTSTAYMELSSLRSEDTAVYFCARYGYSRYDVRFVYWGQGTLVTVSS
VL: DVVMTQSPLSLPVSLGEPASISCRSSQSLVHSNGRTYLEWYLQKPGQSPKVLIYKVSNRISGVPDRFSGSGSGTDFTLKISRVEAEDVGVYFCFQGSHVPYTFGQGTKVEIK
modifications: HV.6, a designed amino acid sequence of VH of an anti-FGF-8 CDR-grafted neutralizing antibody; LV.6, a designed amino acid sequence of VL of an anti-FGF-8 CDR-grafted neutralizing antibody

Key:
[1] = test system: rat adjuvant arthritis model; assay: Rat adjuvant arthritis model; type: in vivo
Method: The rat adjuvant arthritis model was performed in the following manner according to the method of Pearson et al. (Pearson CM. et al., Arthritis Rheum., 5, 654-658, 1962) using Lewis rats (female, 8 weeks old, Japan Charles River).
Mycobacterium butyricum (manufactured by Difco) was suspended in a liquid paraffin (manufactured by Wako Pure Chemical Industries, Ltd.) to a final concentration of 6 mg/mL, and sterilized with a autoclave. The resulting solution was intradermally injected into the rat right hind pad in an amount of 100 μL for sensitization. One group consisted of 8 to 10 rats. Anti-FGF-8 neutralizing antibody KM1334 was dissolved in saline to a final concentration of 2 mg/mL. The solution was intraperitoneally administered to a KM1334 administrated group once a day at a dose of 0.5 mL per 100 g of the body weight for each rat on the sensitization day of the rat adjuvant arthritis model and on days 3, 7, 10, 14 and 17 from the sensitization. To saline administrated group, only saline was intraperitoneally administered instead of the anti-FGF-8 neutralizing antibody KM1334 solution. Further, sodium diclofenac, an antiinflammatory agent, was dissolved in a 0.5 w/v % methyl cellulose solution to a final concentration of 0.3 mg/mL, and the solution was orally administered to a sodium diclofenac administrated group as a positive control once a day at a dose of 1 mL per 100 g of the body weight on days 4, 7 to 11 and 14 to 18 from the adjuvant sensitization day. 50 mg of methotrexate® for injection (manufactured by Wyeth Japan) as a metabolic antagonist was dissolved in a 0.5 w/v % methyl cellulose solution to a final concentration of 0.01 mg/mL, and the solution was administered to a methotrexate administrated group in the same manner as in the sodium diclofenac administrated group. Prednisolone (manufactured by Sigma-Aldrich), a steroidal agent, was suspended in a 0.5 w/v % methyl cellulose solution to a final concentration of 0.3 mg/mL, and the suspension was administered to a prednisolone administrated group in the same manner as in the sodium diclofenac administrated group. Further, a 0.5 w/v % methyl cellulose solution alone was orally administered to a solvent administrated group in the same manner. An untreated group was used, and it was not subjected to sensitization with Mycobacterium butyricum and administration of an agent. The volumes of the adjuvant-treated paw and the adjuvant-untreated paw were measured as time goes by using a device for measuring edemas of rat hind paw (TK-101, manufactured by Unicom).
Using urine collected for 24 hours at day 20 and day 21 after the sensitization, the amounts of glycosaminoglycan, deoxypyridinoline, hydroxyproline and creatinine in urine were measured. The amount of glycosaminoglycan in urine was measured by the DMMB method described in Example 1. The amount of hydroxyproline in urine was measured by the method of Ikeda et al. (Ikeda Shingo et al., Tokyo Eiken Nenpo, 36 277-282, 1985). That is, 0.8 mL of hydrochloric acid for amino acid analysis (manufactured by Kanto Kagaku) was added to 0.8 mL of urine to hydrolyze at 110° C. for 15 hours. To 0.5 mL of the hydrolyzed sample was added 2 mL of a 1.2 mol/L sodium hydroxide solution for neutralization. 1 mL of isopropanol was added to 0.5 mL of the neutralized sample, and 1 ml of an oxidant solution was added. The mixture was stirred well, and allowed to stand at room temperature for 5 minutes. […]

[2] = test system: mouse collagen-induced arthritis model; assay: Mouse collagen-induced arthritis model; type: in vivo; settings: positive control, 0.3 mg/mL, 1 mL per 100 g orally
Method: The mouse collagen-induced arthritis model was prepared in the following manner according to the method of Kamada et al., (Kamada H. et al., Jpn. J. Pharmacol., 70, 169-175, 1996) using DBA/1J mice (male, 7 weeks old, Japan Charles River).
A bovine cartilage-derived type II collagen solution (manufactured by Collagen Gijutsu Kenshu) was mixed with a Freund's complete adjuvant (manufactured by Iatron) under ice cooling to form an emulsion which was adjusted such that the final concentration of the type II collagen became 1.5 mg/mL. The emulsion was intradermally injected in amount of 100 μL at the base of the tail of the mouse for sensitization. Twenty-one days later, the additional immunization was performed in the same manner. One group consisted of 10 mice. Anti-FGF-8 neutralizing antibody KM1334 was dissolved in a saline (manufactured by Otsuka Seiyaku Kojo) to a final concentration of 2 mg/mL, and the solution was intraperitoneally administered to a KM1334 administrated group at a dose of 200 μL for each mouse once a day on days 21, 25, 28, 32, 35 and 39 from the initial sensitization of the mouse collagen-induced arthritis model. […] The change with time of edemas of all limbs in collagen-induced arthritis was evaluated by the scoring from 0 to 4 in each limb to a total of 16 at the maximum score in all limbs. […]

[3] = biological target: T1, FGF-8; assay: FGF-8 binding activity by BIAcore 2000, immobilized FGF-8; settings: antibody 50 μg/mL; FGF-8 immobilized 4498 RU
Method: In order to examine the FGF-8 binding activity of the various anti-FGF-8 neutralizing CDR-grafted antibodies obtained in 4. of Reference Example 2 in more detail, the FGF-8 binding activity of the various anti-FGF-8 neutralizing CDR-grafted antibodies was measured and compared in the following manner using BIAcore2000 (manufactured by BIACORE). The YB2/0 cell-derived anti-FGF-8 neutralizing chimeric antibody KM3334 obtained in 3.(2) of Reference Example 1 was used as a positive control.
HBS-EP (manufactured by BIACORE) was used hereinafter as a sample diluent and a buffer during measurement. First, Sensor Chip CM5 (manufactured by BIACORE) was installed, and FGF-8 (manufactured by R & D) dissolved in 31.25 μg/mL of 10 mmol/L acetate buffer solution (pH 4.0) was immobilized on the surface of the sensor chip by the amine coupling method. The immobilization amount measured by using a resonance signal (RU) as an index was 4498 RU.
60 μL of each of the antibody solutions was added to an FGF-8 immobilized flow cell at a flow rate of 20 μL/min, and the dissociation reaction was then monitored for 3 minutes. After the dissociation reaction, 20 μL of a 10 mmol/L glycine-hydrochloride solution (pH 1.5) was added to the flow cell twice continuously to regenerate the surface of the chip. This cycle was performed with the antibody solution at various concentrations (from 50 to 0.068 μg/mL) to obtain sensor grams at various concentrations. The sensor grams of the respective antibodies were converted to sensor grams of specific reactions by deducing a sensor gram obtained using chimeric antibody KM871 (Shitara K. et al., Cancer Immunol. Immunother., 36, 373-380, 1993) to GD3 as a negative control. […] Accordingly, the binding activity of the various antibodies was compared in terms of the binding [resonance signal (RU)] in the binding reaction. […] The effect of restoring the binding activity was not observed in the 6 amino acid residues of FR of VH.

| Molecule | Bone destruction score ([1]; Table 2, soft X-ray of calcaneus, adjuvant-untreated paw, day 21, maximum 5, mean ± standard error, oral comparators) | Bone destruction score (% inhibition) ([1]; Table 2, vs solvent group) | inhibition of the increase in paw volume, adjuvant-untreated paw ([1]; day 21, oral, 1 mL per 100 g: sodium diclofenac 0.3 mg/mL, methotrexate 0.01 mg/mL, prednisolone 0.3 mg/mL, vs solvent group) | inhibition of the increase (decrease) in amount of glycosaminoglycan in urine ([1]; urine day 20 to 21, oral comparators vs solvent group, diclofenac and prednisolone not significant) | inhibition of the increase (decrease) in amount of deoxypyridinoline in urine ([1]; urine day 20 to 21, oral comparators vs solvent group, methotrexate and prednisolone not significant) | degree of the inhibition of the arthritic score compared with the KM1334 administrated group [2] | binding reaction [resonance signal (RU)] [3] |
| --- | --- | --- | --- | --- | --- | --- | --- |
| O=C(O)Cc1ccccc1Nc1c(Cl)cccc1Cl [sodium diclofenac] | 3.1 ± 0.6 | 33% | 45% | 40% | 88% | the same |  |
| B1 |  |  |  |  |  |  | slightly low in comparison to KM3334 and HV0LV6 |

— US7708999B2, “Remedies for arthritis” (Kyowa Hakko Kirin Co., Ltd., priority 2001, dated 2010)
